Drawing on patent US6967196B1, “Sulfonamide compounds and uses thereof” (Bristol-Myers Squibb Company, priority 1999, dated 2005), this text covers IC50 for 31 molecules.

Structures can show the parent of a compound that is named as a salt.

For one experiment, the system named is amyloid β production in transfected H4 (human neuroglioma) cells stably expressing APP constructs. Description: In vitro cell-based assay of inhibitors of amyloid β production (ELISA). Conditions: Homo sapiens, 16 h, transfected H4 cells stably expressing APP; approx. 16 h incubation; amyloid β in medium by ELISA; read-out: ACTIVITY (IC50, inhibition of amyloid β production). A digest of the protocol:
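H4 neuroglioma cells stably expressing APP constructs were dosed in fresh medium, screened initially at 10-100 μM, and incubated ~16 h. Medium Aβ was measured by ELISA with C-terminal-epitope capture and N-terminal detection antibodies, quantified from a standard curve, with dose-response testing of actives.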
In the case of `O=S(=O)(c1ccc(Cl)cc1)N(Cc1ccccc1OCCC1CCCCN1Cc1ccccc1I)c1cc(F)ccc1F` (stereo not shown) [Example 672, 4-chloro-N-(2,5-difluorophenyl)-N-(2-{2-[1-(2-iodobenzyl)-2-piperidinyl]ethoxy}benzyl)benzenesulfonamide], the IC50 lay in the range of 100 to 500 nM.
On the same count and under the same terms, then `O=[N+]([O-])c1ccc([S+]([O-])CCCOc2ccccc2CN(c2cc(F)ccc2F)S(=O)(=O)c2ccc(Cl)cc2)cc1` (stereo not shown) [Example 689, 4-chloro-N-(2,5-difluorophenyl)-N-(2-{3-[(4-nitrophenyl)sulfinyl]propoxy}benzyl)benzenesulfonamide], with 100 to 500 nM; and `CC(c1ccccc1OCCCN(C)S(=O)(=O)c1ccc(I)cc1)N(c1cc(F)ccc1F)S(=O)(=O)c1ccc(Cl)cc1` (stereo not shown) [Example 692, 4-chloro-N-(2,5-difluorophenyl)-N-[1-(2-{3-[[(4-iodophenyl)sulfonyl](methyl)amino]propoxy}phenyl)ethyl]benzenesulfonamide], with 100 to 500 nM; and `CC(C)NC(=O)N(C)CCOc1ccccc1C(C)N(c1cc(F)ccc1F)S(=O)(=O)c1ccc(Cl)cc1` (stereo not shown) [Example 695, 4-chloro-N-(2,5-difluorophenyl)-N-[1-(2-{2-[[(isopropylamino)carbonyl](methyl)amino]ethoxy}phenyl)ethyl]benzenesulfonamide], with 100 to 500 nM.
The same measure, in the same setting: then `CCN(CC)C(=O)N(CC)CCOc1ccccc1C(C)N(c1cc(F)ccc1F)S(=O)(=O)c1ccc(Cl)cc1` (stereo not shown) [Example 698, 4-chloro-N-[1-(2-{2-[[(diethylamino)carbonyl](ethyl)amino]ethoxy}phenyl)ethyl]-N-(2,5-difluorophenyl)benzenesulfonamide], with 100 to 500 nM; and `O=S(=O)(c1ccc(Cl)cc1)N(Cc1ccccc1OCCC[S+]([O-])c1ccccc1)c1cc(F)ccc1F` (stereo not shown) [Example 702, 4-chloro-N-(2,5-difluorophenyl)-N-{2-[3-(phenylsulfinyl)propoxy]benzyl}benzenesulfonamide], with 100 to 500 nM.
The same measure, in the same setting: to `O=C1CCCC(=O)N1CCCOc1ccccc1CN(c1cc(F)ccc1F)S(=O)(=O)c1ccc(Cl)cc1` [Example 704, 4-chloro-N-(2,5-difluorophenyl)-N-{2-[3-(2,6-dioxo-1-piperidinyl)propoxy]benzyl}benzenesulfonamide] belongs 100 to 500 nM; to `O=S(=O)(c1ccc(Cl)cc1)N(Cc1ccccc1OCCCN1CCCCC1)c1ccc(Cl)cc1Cl` [Example 706, 4-chloro-N-(2,4-dichlorophenyl)-N-{2-[3-(1-piperidinyl)propoxy]benzyl}benzenesulfonamide hydrochloride], 100 to 500 nM.
Consider `CCN(CCOc1ccccc1C(C)N(c1cc(F)ccc1F)S(=O)(=O)c1ccc(Cl)cc1)C(=O)NC(C)(C)C` (stereo not shown) [Example 709, N-[1-(2-{2-[[(tert-butylamino)carbonyl](ethyl)amino]ethoxy}phenyl)ethyl]-4-chloro-N-(2,5 difluorophenyl)benzenesulfonamide], for which the 50% inhibitory concentration (IC50) fell in the range of 100 to 500 nM.
Still for that read-out and setting: then `O=S(=O)(c1ccc(Cl)cc1)N(Cc1ccccc1C#CCN1CCCCC1)c1cc(F)ccc1F` [Example 711, 4-chloro-N-(2,5-difluorophenyl)-N-{2-[3-(1-piperidinyl)-1-propynyl]benzyl}benzenesulfonamide hydrochloride], with 100 to 500 nM; and `O=S(=O)(c1ccc(Cl)cc1)N(Cc1ccccc1OCCCN1CCCC1)c1ccccc1` [Example 718, 4-chloro-N-phenyl-N-{2-[3-(1-pyrrolidinyl)propoxy]benzyl}benzenesulfonamide hydrochloride], with 100 to 500 nM; and `CC(c1ccccc1OCCN(C)C(=O)NC(C)(C)C)N(c1cc(F)ccc1F)S(=O)(=O)c1ccc(Cl)cc1` (stereo not shown) [Example 724, N-[1-(2-{2-[[(tert-butylamino)carbonyl](methyl)amino]ethoxy}phenyl)ethyl]-4-chloro-N-(2,5-difluorophenyl)benzenesulfonamide], with 100 to 500 nM.
Still for that read-out and setting: then `CCN(CCOc1ccccc1C(C)N(c1cc(F)ccc1F)S(=O)(=O)c1ccc(Cl)cc1)C(=O)NC(C)C` (stereo not shown) [Example 725, 4-chloro-N-(2,5-difluorophenyl)-N-{1-[2-(2-{ethyl[(isopropylamino)carbonyl]amino}ethoxy)phenyl]ethyl}benzenesulfonamide], with 100 to 500 nM; and `CC(C)NC(=O)N(C)CCCOc1ccccc1CN(c1cc(F)ccc1F)S(=O)(=O)c1ccc(Cl)cc1` [Example 734, 4-chloro-N-(2,5-difluorophenyl)-N-(2-{3-[[(isopropylamino)carbonyl](methyl)amino]propoxy}benzyl)benzenesulfonamide], with 100 to 500 nM.
On the same count and under the same terms, to `CC(c1ccccc1OCCN(C)S(=O)(=O)C(C)C)N(c1cc(F)ccc1F)S(=O)(=O)c1ccc(Cl)cc1` (stereo not shown) [Example 735, 4-chloro-N-(2,5-difluorophenyl)-N-[1-(2-{2-[(isopropylsulfonyl)(methyl)amino]ethoxy}phenyl)ethyl]benzenesulfonamide] belongs 100 to 500 nM; to `O=S(=O)(c1ccc(Cl)cc1)N(Cc1ccccc1OCCCn1ccnc1)c1cc(Cl)ccc1Cl` [Example 740, 4-chloro-N-(2,5-dichlorophenyl)-N-{2-[3-(1H-imidazol-1-yl)propoxy]benzyl}benzenesulfonamide hydrochloride], 100 to 500 nM; to `O=C(c1ccccc1)N1CCCCC1CCOc1ccccc1CN(c1cc(F)ccc1F)S(=O)(=O)c1ccc(Cl)cc1` (stereo not shown) [Example 745, N-{2-[2-(1-benzoyl-2-piperidinyl)ethoxy]benzyl}-4-chloro-N-(2,5-difluorophenyl)benzenesulfonamide], 100 to 500 nM.
As to `O=S(=O)(c1ccc(Cl)cc1)N(Cc1ccccc1OCCC1CCCCN1Cc1cc(F)cc(F)c1)c1cc(F)ccc1F` (stereo not shown) [Example 746, 4-chloro-N-(2-{2-[1-(3,5-difluorobenzyl)-2-piperidinyl]ethoxy}benzyl)-N-(2,5-difluorophenyl)benzenesulfonamide], the concentration for half-maximal inhibition (IC50) is 100 to 500 nM.
The same measure, in the same setting: to `O=S(=O)(c1ccc(Cl)cc1)N(Cc1ccccc1OCCCN1CC=CCC1)c1ccccc1` [Example 749, 4-chloro-N-{2-[3-(3,6-dihydro-1(2H)-pyridinyl)propoxy]benzyl}-N-phenylbenzenesulfonamide hydrochloride] belongs 100 to 500 nM; to `O=S(=O)(c1ccc(Cl)cc1)N(Cc1ccccc1Cn1ncnn1)c1cc(F)ccc1F` [Example 751, 4-chloro-N-(2,5-difluorophenyl)-N-[2-(2H-tetraazol-2-ylmethyl)benzyl]benzenesulfonamide], 100 to 500 nM.

Still in this experiment, the particulars now being: transfected H4 cells stably expressing APP; approx. 16 h incubation; amyloid β in medium by ELISA; read-out: ACTIVITY (IC50, inhibition of amyloid β production).
Consider `C[C@H](c1ccccc1COC(=O)NCc1ccco1)N(c1cc(F)ccc1F)S(=O)(=O)c1ccc(Cl)cc1` [Example 667, 2-((1R)-1-{[(4-chlorophenyl)sulfonyl]-2,5-difluoroanilino}ethyl)benzyl 2-furylmethylcarbamate], for which the half-maximal inhibitory concentration (IC50) was 100 to 500 nM.
Still for that read-out and setting: to `CC(c1ccccc1OCCCN(C)C(=O)c1cc([N+](=O)[O-])cc([N+](=O)[O-])c1)N(c1cc(F)ccc1F)S(=O)(=O)c1ccc(Cl)cc1` (stereo not shown) [Example 668, N-{3-[2-(1-{[(4-chlorophenyl)sulfonyl]-2,5-difluoroanilino}ethyl)phenoxy]propyl}-N-methyl-3,5-dinitrobenzamide] belongs 100 to 500 nM; to `C[C@H](c1ccccc1COC(=O)NCc1ccc2c(c1)OCO2)N(c1cc(F)ccc1F)S(=O)(=O)c1ccc(Cl)cc1` [Example 673, 2-((1R)-1-{[(4-chlorophenyl)sulfonyl]-2,5-difluoroanilino}ethyl)benzyl 1,3-benzodioxol-5-ylmethylcarbamate], 100 to 500 nM.
On the same count and under the same terms, to `C[C@H](c1ccccc1CCOC(=O)NC1CCCCC1)N(c1cc(F)ccc1F)S(=O)(=O)c1ccc(Cl)cc1` [Example 685, 2-[2-((1R)-1-{3-[2-(1-{[(4-chlorophenyl)sulfonyl]-2,5-difluoroanilino}ethyl)phenyl]ethyl cyclohexylcarbamate] belongs 100 to 500 nM; to `Cc1cccc(C(=O)NCCCOc2ccccc2C(C)N(c2cc(F)ccc2F)S(=O)(=O)c2ccc(Cl)cc2)c1` (stereo not shown) [Example 687], 100 to 500 nM; to `C[C@H](c1ccc(F)cc1COC(=O)NCc1ccco1)N(c1cc(F)ccc1F)S(=O)(=O)c1ccc(Cl)cc1` [Example 691, 2-((1R)-1-{[(4-chlorophenyl)sulfonyl]-2,5-difluoroanilino}ethyl)-5-fluorobenzyl 2-furylmethylcarbamate], 100 to 500 nM.
On the same count and under the same terms, then `CC(c1ccccc1OCCN(C)S(=O)(=O)CC(F)(F)F)N(c1cc(F)ccc1F)S(=O)(=O)c1ccc(Cl)cc1` (stereo not shown) [Example 701, 4-chloro-N-(2,5-difluorophenyl)-N-{1-[2-(2-{methyl[(2,2,2-trifluorophenyl)sulfonyl]amino}ethoxy)phenyl]ethyl}benzenesulfonamide], with 100 to 500 nM; and `CCCCC(=O)N(C)CCCOc1ccccc1CN(c1cc(F)ccc1F)S(=O)(=O)c1ccc(Cl)cc1` [Example 717, N-{3-[2-({[(4-chlorophenyl)sulfonyl]-2,5-difluoroanilino}methyl)phenoxy]propyl}-N-methylpentamide], with 100 to 500 nM.
As for `CN(CCCOc1ccccc1CN(c1cc(F)ccc1F)S(=O)(=O)c1ccc(Cl)cc1)C(=O)c1ccc(-c2ccccc2)cc1` [Example 752, N-{3-[2-({[(4-chlorophenyl)sulfonyl]-2,5-difluoroanilino}methyl)phenoxy]propyl}-N-methyl[1,1′-biphenyl]-4-carboxamide], the half-inhibitory concentration (IC50) was 100 to 500 nM.
Still for that read-out and setting: to `O=S(=O)(CCOc1ccccc1CN(c1cc(F)ccc1F)S(=O)(=O)c1ccc(Cl)cc1)C1CCCCC1` [Example 754, 4-chloro-N-{2-[2-(cyclohexylfulfonyl)ethoxy]benzyl}-N-(2,5-difluorophenyl)benzenesulfonamide] belongs 100 to 500 nM; to `CC(c1ccccc1OCCCNC(=O)c1cccc(F)c1)N(c1cc(F)ccc1F)S(=O)(=O)c1ccc(Cl)cc1` (stereo not shown) [Example 761], 100 to 500 nM.
